Test results taken from patent EP0435794A1, “Alkenyl- or heteroaryl thio, sulfone, sulfoxy herbicides” (RHONE-POULENC AGROCHIMIE, priority 1989, dated 1991).

Assays:
Type in all cases: in vivo
Avena fatua = assay: Exemple A: herbicide application, pre-emergence; conditions: notation 0 à 5 after 24 days
Description: (§1) Exemple A - Application herbicide, en prélevée des espèces végétales
(§2) Dans des pots de 7 x 7 x 8 cm remplis de terre agricole légère, on sème un nombre de graines déterminé en fonction de l'espèce végétale et de la grosseur de la graine.
(§3) Les pots sont traités par pulvérisation de bouillie en quantité correspondant à une dose volumique d'application de 500 l/ha et contenant la matière active à la concentration désirée.
(§4) Le traitement avec la bouillie est donc effectué sur des graines non recouvertes de terre (on utilise le terme de bouillie pour désigner, en général, les compositions diluées à l'eau, telles qu'on les applique sur les végétaux).
(§5) La bouillie utilisée pour le traitement est une solution ou suspension de la matière active dans un mélange acétone/eau en proportions 50/50, en présence de 0,05 % en poids de cemulsol NP 10 (agent tensio-actif) constitué d'alkylphénol polyéthoxylé, notamment de nonylphénol polyéthoxylé) et 0,04 % en poids de tween 20 (agent tensio-actif constitué d'un oléate de dérivé polyoxyéthyléné du sorbitol).
(§6) Dans le cas d'une suspension, celle-ci est obtenue en mélangeant et broyant les ingrédients dans un microniseur de façon à obtenir une grosseur moyenne de particules inférieure à 40 microns.
(§7) Après traitement, on recouvre les graines d'une couche de terre d'environ 3 mm d'épaisseur.
(§8) Les pots sont alors placés dans des bacs destinés à recevoir l'eau d'arrosage, en subirrigation, et maintenus pendant 24 jours à température ambiante sous 70 % d'humidité relative.
(§9) Le relevé est effectué de la façon suivante:
(§10) Au bout de 24 jours, on mesure un pourcentage (D) des destructions du nombre de pieds dans le pot traité par rapport au nombre de plantes dans les pots non traités (témoin). On mesure, sur les plantes traitées restantes, le pourcentage de réduction de taille (RT) par rapport aux plantes témoin.
(§11) Le pourcentage du volume foliaire non détruit par le produit est donc donné par la formule: ([100-D] x [100-RT])/(100)= A [formula]
(§12) Cette valeur A est transformée en notation de 0 à 5 selon l'échelle suivante:
(§13) Les résultats obtenus sont présentés après l'exemple B pour des doses d'application de 4000 g/ha à 1000 g/ha.
(§14) Les espèces végétales utilisées dans ces exemples A et B sont: […]

Digitaria sanguinalis [1] = assay: Exemple A: herbicide application, pre-emergence; conditions: notation 0 à 5 after 24 days
Description: as §1, §2, §3, §4, §5, §6, §7, §8, §9, §10, §11, §12, §13, §14

Alopecurus myosuroïdes = assay: Exemple A: herbicide application, pre-emergence; conditions: notation 0 à 5 after 24 days
Description: as §1, §2, §3, §4, §5, §6, §7, §8, §9, §10, §11, §12, §13, §14

Cyperus esculentus = assay: Exemple A: herbicide application, pre-emergence; conditions: notation 0 à 5 after 24 days
Description: as §1, §2, §3, §4, §5, §6, §7, §8, §9, §10, §11, §12, §13, §14

Echinochloa crus galli = assay: Exemple A: herbicide application, pre-emergence; conditions: notation 0 à 5 after 24 days
Description: as §1, §2, §3, §4, §5, §6, §7, §8, §9, §10, §11, §12, §13, §14

blé = assay: Exemple C: selectivity test in field crops, pre-emergence (crop); conditions: 24 days, 0 or 1 = selective; note: ranges in brackets are in %
Description: (§15) Exemple C - Essai de sélectivité en grandes cultures avec application herbicide, en prélevée des espèces végétales
(§16) Dans des pots de 7 X 7 X 8 cm remplis de terre agricole légère, on sème un nombre de graines déterminé en fonction de l'espèce végétale et de la grosseur de la graine.
(§17) On recouvre ensuite les graines d'une couche de terre d'environ 3 mm d'épaisseur.
(§18) Les pots sont alors traités par pulvérisation de bouillie en quantité correspondant à une dose volumique d'application de 500 l/ha et contenant la matière active à la concentration désirée.
(§19) La bouillie a été préparée de la même manière qu'à l'exemple A.
(§20) Les pots traités sont ensuite placés dans des bacs destinés à recevoir l'eau d'arrosage, en subirrigation, et maintenus pendant 24 jours à température ambiante sous 70 % d'humidité relative.
as §9
(§21) Au bout de 24 jours, on mesure un pourcentage (D) de destruction du nombre de pieds dans le pot traité par rapport au nombre de plantes dans les pots non traités (témoin). On mesure, sur les plantes traitées restantes, le pourcentage de réduction de taille (RT) par rapport aux plantes témoins.
(§22) Le pourcentage de volume foliaire non détruit par le produit est donc donné par la formule: ([100-D] X [100-RT])/(100)= A [formula]
as §12
(§23) Ainsi, un produit est jugé comme sélectif vis à vis de la culture lorsque la valeur A notée est de 0 ou 1.
(§24) Les résultats obtenus sont présentés dans l'exemple C pour des doses d'application de 500, 1000, 2000 ou 4000 g de matière active par hectare selon les produits.
(§25) Les espèces végétales utilisées dans cet exemple sont:
(§26) Comme on peut le voir sur le tableau de résultats de cet exemple C, de nombreux produits présentent une excellente activité antigraminée de prélevée tout en montrant une excellente sélectivité pour 1 ou 2 ou 3 ou 4 des 4 cultures testées = blé, maïs, riz, soja.

soja = assay: as above; conditions: 24 days, 0 or 1 = selective; note: ranges in brackets are in %
Description: as §15, §16, §17, §18, §19, §20, §9, §21, §22, §12, §23, §24, §25, §26

riz = assay: as above; conditions: 24 days, 0 or 1 = selective; note: ranges in brackets are in %
Description: as §15, §16, §17, §18, §19, §20, §9, §21, §22, §12, §23, §24, §25, §26

maïs = assay: as above; conditions: 24 days, 0 or 1 = selective; note: ranges in brackets are in %
Description: as §15, §16, §17, §18, §19, §20, §9, §21, §22, §12, §23, §24, §25, §26

Alopecurus myosuroides = assay: Exemple C: selectivity test in field crops, pre-emergence (weed); conditions: 24 days
Description: as §15, §16, §17, §18, §19, §20, §9, §21, §22, §12, §23, §24
(§27) Les espèces végétales utilisées dans cet exemple sont: […]

Digitaria sanguinalis [2] = assay: as above; conditions: 24 days
Description: as §15, §16, §17, §18, §19, §20, §9, §21, §22, §12, §23, §24, §27

Sorghum halepense = assay: as above; conditions: 24 days
Description: as §15, §16, §17, §18, §19, §20, §9, §21, §22, §12, §23, §24, §27

Panicum milicaeum = assay: as above; conditions: 24 days
Description: as §15, §16, §17, §18, §19, §20, §9, §21, §22, §12, §23, §24, §27

Echinochloa crus-galli = assay: as above; conditions: 24 days
Description: as §15, §16, §17, §18, §19, §20, §9, §21, §22, §12, §23, §24, §27

Setaria faberii = assay: as above; conditions: 24 days
Description: as §15, §16, §17, §18, §19, §20, §9, §21, §22, §12, §23, §24, §27

Structure (SMILES) | Notation de l'activité herbicide TRZ (blé; dose 1 Kg m.a./ha) | Notation de l'activité herbicide GLY (soja; dose 1 Kg m.a./ha) | Notation de l'activité herbicide ORY (riz; dose 1 Kg m.a./ha) | Notation de l'activité herbicide ZEA (maïs; dose 1 Kg m.a./ha) | Notation de l'activité herbicide ALO (Alopecurus myosuroides; dose 1 Kg m.a./ha) | Notation de l'activité herbicide DIG (Digitaria sanguinalis [2]; dose 1 Kg m.a./ha) | Notation de l'activité herbicide SOR (Sorghum halepense; dose 1 Kg m.a./ha) | Notation de l'activité herbicide PAN (Panicum milicaeum; dose 1 Kg m.a./ha) | Notation de l'activité herbicide ECh (Echinochloa crus-galli; dose 1 Kg m.a./ha) | Notation de l'activité herbicide SET (Setaria faberii; dose 1 Kg m.a./ha) | other results
C=C(CS(=O)(=O)c1cccs1)c1cccc(F)c1 [compound 3, 2-(3-fluorophényl) 1-(2-thiénylsulfonyl) 2-propène] |  |  |  |  |  |  |  |  |  |  | ACTIVITE HERBICIDE DE PRELEVEE AVE (Avena fatua; dose 1 Kg m.a./ha): 1 (70 à 90); ACTIVITE HERBICIDE DE PRELEVEE DIG (Digitaria sanguinalis [1]; dose 1 Kg m.a./ha): 5 (O à 10); ACTIVITE HERBICIDE DE PRELEVEE ALO (Alopecurus myosuroïdes; dose 1 Kg m.a./ha): 5 (O à 10); ACTIVITE HERBICIDE DE PRELEVEE CYP (Cyperus esculentus; dose 1 Kg m.a./ha): 5 (O à 10); ACTIVITE HERBICIDE DE PRELEVEE ECH (Echinochloa crus galli; dose 1 Kg m.a./ha): 5 (O à 10)
C=C(CS(=O)(=O)c1cccs1)c1cc(F)cc(F)c1 [compound 7, 2-(3,5-difluorophényl) 1-(2-thiénylsulfonyl) 2-propène] |  |  |  |  |  |  |  |  |  |  | ACTIVITE HERBICIDE DE PRELEVEE AVE (Avena fatua; dose 1 Kg m.a./ha): 1 (70 à 90); ACTIVITE HERBICIDE DE PRELEVEE DIG (Digitaria sanguinalis [1]; dose 1 Kg m.a./ha): 5 (O à 10); ACTIVITE HERBICIDE DE PRELEVEE ALO (Alopecurus myosuroïdes; dose 1 Kg m.a./ha): 5 (O à 10); ACTIVITE HERBICIDE DE PRELEVEE CYP (Cyperus esculentus; dose 1 Kg m.a./ha): 1 (70 à 90); ACTIVITE HERBICIDE DE PRELEVEE ECH (Echinochloa crus galli; dose 1 Kg m.a./ha): 5 (O à 10)
C=C(CS(=O)(=O)c1sccc1Br)c1cccc(F)c1 [compound 9, 1-[(3-bromo 2-thiényl)sulfonyl] 2-(3-fluorophényl)2-propène] |  |  |  |  |  |  |  |  |  |  | ACTIVITE HERBICIDE DE PRELEVEE AVE (Avena fatua; dose 4 Kg m.a./ha): 5 (O à 10); ACTIVITE HERBICIDE DE PRELEVEE DIG (Digitaria sanguinalis [1]; dose 4 Kg m.a./ha): 5 (O à 10); ACTIVITE HERBICIDE DE PRELEVEE ALO (Alopecurus myosuroïdes; dose 4 Kg m.a./ha): 5 (O à 10); ACTIVITE HERBICIDE DE PRELEVEE CYP (Cyperus esculentus; dose 4 Kg m.a./ha): 4 (10 à 30); ACTIVITE HERBICIDE DE PRELEVEE ECH (Echinochloa crus galli; dose 4 Kg m.a./ha): 5 (O à 10)
C=C(CS(=O)(=O)c1sc(C)nc1C)c1cccc(C)c1 [compound 47] | 0 (90 à 100) | 0 (90 à 100) | 2 (50 à 70) | 1 (70 à 90) | 5 (O à 10) | 5 (O à 10) | 3 (30 à 50) | 5 (O à 10) | 4 (10 à 30) | 2 (50 à 70) | 
Cc1cc(C(O)(CBr)CS(=O)(=O)c2ccsc2)ccc1F (stereo not drawn) [compound 66] | 1 (70 à 90) | 1 (70 à 90) | 2 (50 à 70) | 2 (50 à 70) | 3 (30 à 50) | 5 (O à 10) | 5 (O à 10) | 3 (30 à 50) | 5 (O à 10) | 3 (30 à 50) | 
C=C(CS(=O)(=O)c1cccs1)c1cccc(Cl)n1 [compound 4, 2-(6-chloro 2-pyridyl) 1-(2-thiénylsulfonyl) 2-propène] |  |  |  |  |  |  |  |  |  |  | ACTIVITE HERBICIDE DE PRELEVEE AVE (Avena fatua; dose 4 Kg m.a./ha): 3 (30 à 50); ACTIVITE HERBICIDE DE PRELEVEE DIG (Digitaria sanguinalis [1]; dose 4 Kg m.a./ha): 5 (O à 10); ACTIVITE HERBICIDE DE PRELEVEE ALO (Alopecurus myosuroïdes; dose 4 Kg m.a./ha): 5 (O à 10); ACTIVITE HERBICIDE DE PRELEVEE CYP (Cyperus esculentus; dose 4 Kg m.a./ha): 5 (O à 10); ACTIVITE HERBICIDE DE PRELEVEE ECH (Echinochloa crus galli; dose 4 Kg m.a./ha): 5 (O à 10)
C=C(CS(=O)(=O)C=C(C)C)c1ccccc1 [compound 73] |  |  |  |  |  |  |  |  |  |  | Notation de l'activité herbicide TRZ (blé; dose 2 Kg m.a./ha): 1 (70 à 90); Notation de l'activité herbicide GLY (soja; dose 2 Kg m.a./ha): 0 (90 à 100); Notation de l'activité herbicide ORY (riz; dose 2 Kg m.a./ha): 0 (90 à 100); Notation de l'activité herbicide ZEA (maïs; dose 2 Kg m.a./ha): 2 (50 à 70); Notation de l'activité herbicide ALO (Alopecurus myosuroides; dose 2 Kg m.a./ha): 4 (10 à 30); Notation de l'activité herbicide DIG (Digitaria sanguinalis [2]; dose 2 Kg m.a./ha): 3 (30 à 50); Notation de l'activité herbicide SOR (Sorghum halepense; dose 2 Kg m.a./ha): 3 (30 à 50); Notation de l'activité herbicide PAN (Panicum milicaeum; dose 2 Kg m.a./ha): 3 (30 à 50); Notation de l'activité herbicide ECh (Echinochloa crus-galli; dose 2 Kg m.a./ha): 5 (O à 10); Notation de l'activité herbicide SET (Setaria faberii; dose 2 Kg m.a./ha): 0 (90 à 100)
O=S(=O)(CC(O)(CBr)c1cccc(Cl)c1)c1ccsc1 (stereo not drawn) [compound 64] | 0 (90 à 100) | 0 (90 à 100) | 2 (50 à 70) | 2 (50 à 70) | 3 (30 à 50) | 5 (O à 10) | 2 (50 à 70) | 5 (O à 10) | 5 (O à 10) | 5 (O à 10) | 
